Reference: patent US20050051179A1, “Simple apparatus for preparing experimental models of brain neuronal damage and preparation of secondary brain damage model with methods for evaluation of drug efficacy of novel compounds against brain damage and memory-related events” (priority 2003, published 2005)

Key:
[1] = tested on: pyramidal cells of hippocampal CA1 field; test: Viable pyramidal cell counts per unit area, hippocampal CA1 field, after drop-weight impact; assay type: in vivo, rat; settings: rats, 3 mg/kg i.p. before impact
Protocol: (§1) Male Fisher rats weighing 400-450 g were anesthetized with sodium pentobarbital (Nembutal; Dainippon Pharmaceutical Co., Ltd., Osaka) by i.p. administration (40 mg/kg) before the head was restrained in a stereotaxic apparatus. Weight 20 of 5-gram mass positioned at a drop-distance of 10 cm was dropped onto the brain surface under gravitational force to generate an impact of 50 cm·g, causing a head injury. Follow-up studies of the progress of subsequent events from 1 to 48 hours post-impact were monitored with the MRI approach.
(§2) Immediately after impact, MRI diagnoses were conducted to categorize animals as (i) no injuries, (ii) no subarachinoid hemorrhage and (iii) external wounds and hemorrhages inflicted on brain surface, etc. Animals having such criteria were omitted from subsequent studies. Animals with confirmed cerebral injuries but without these criteria were divided into groups of six each.
Along with MRI findings from 1 to 48 hours post-impact, brain injuries were also evaluated histopathologically using the cardioperfusion method with 200 mL of physiological saline (0.9 w/w %) to first remove blood cells followed by fixation with 50 mL of 0.1 MPBS (pH: 7.4) containing 4% paraformaldehyde (PFA). Brain tissues were then embedded in paraffin and coronal sections of the brain specimens were sectioned before staining with the hematoxylin-eosin (H&E) reagent.
With regard to the therapeutic effects of chemical agents tested, viable pyramidal cell counts per unit area (1 mm^2) of tissues in hippocampal CA1 and CA3 fields were determined to derive the area of tissue damage/injury using image-analysis software (NIH Co., Ltd.; Image Ver. 1.55). As for the extent of tissue damage, slices with the maximum damage area between two groups were compared.

[2] = tested on: pyramidal cells of hippocampal CA3 field; test: Viable pyramidal cell counts per unit area, hippocampal CA3 field, after drop-weight impact; assay type: in vivo, rat; settings: rats, 3 mg/kg i.p. before impact
Protocol: as §1
Immediately after impact, MRI diagnoses were conducted to categorize animals as (i) no injuries, (ii) no subarachinoid hemorrhage and (iii) external wounds and hemorrhages inflicted on brain surface, etc. Animals having such criteria were omitted from subsequent studies. […]
Along with MRI findings from 1 to 48 hours post-impact, brain injuries were also evaluated histopathologically using the cardioperfusion method with 200 mL of physiological saline (0.9 w/w %) to first remove blood cells followed by fixation with 50 mL of 0.1 MPBS (pH: 7.4) containing 4% paraformaldehyde (PFA). […]
With regard to the therapeutic effects of chemical agents tested, viable pyramidal cell counts per unit area (1 mm^2) of tissues in hippocampal CA1 and CA3 fields were determined to derive the area of tissue damage/injury using image-analysis software (NIH Co., Ltd.; Image Ver. 1.55). […]

[3] = tested on: direct contusion nest (DCN) injury; test: MRI findings and cerebral blood flow (CBF) velocity after direct contusion nest (DCN); assay type: in vivo, dog
Excerpt: (§3) Eight healthy 4-year-old male Beagle dogs were anesthetized before a square piece of skull (1.2×1.2 cm^2) was craniectomized. As two different cerebral injuries were involved in the study, a unilateral parietal bone was drilled and the brain surface surgically exposed without removing the dura mater. In two randomized dogs, a self-designed 5-mm spherical DCN with reproducibility was applied to generate concussion (CC in Table 1). In the remaining four dogs, the WD method was employed under the following experimental conditions: a weight of 12-g mass with a drop-distance of 20 cm to generate an impact of 240 cm·g.
(§4) MRI findings were performed with superconductor magnetism of magnetic field intensity 0.5T (Flexart MRT-50GP; Toshiba Medical Co., Ltd.). CBF velocities of DCN (n=2) and drop-weight-inflicted (n=4) dogs (including craniectomized skull-replaced dogs) were measured via MRI using the 3D-phase shift magnetic resonance angiography with presaturation pulse (PAMRA: TE=25, TR=10). Craniectomized skull-chips were replaced and kept in position with adhesive.

[4] = tested on: SBD derived from experimental head injury; test: MRI diagnosis of cerebral injuries after drop-weight impact (SBD model); assay type: in vivo, rat; settings: rats, 3 mg/kg i.p. before impact of 50 cm·g; 1 hr post-impact
Protocol: as §1, §2

[5] = tested on: SBD generated with the drop weight apparatus; test: MRI findings and cerebral blood flow (CBF) velocity after drop-weight impact (240 cm·g); assay type: in vivo, dog; settings: dogs
Excerpt: as §3, §4

C[C@]12N[C@H](Cc3ccccc31)c1ccccc12 [MK-801]
suppression of SBD exacerbation (viable cell counts 48 hr vs 1 hr post-impact) [1]: could not completely suppress SBD exacerbation
viable pyramidal cell counts per unit area, CA1 field, decrease compared with the control group ([1]; 1 hr post-impact, non-treated 59.2%): 66.4%
viable pyramidal cell counts per unit area, CA1 field, decrease compared with the control group ([1]; 48 hr post-impact, non-treated 44.5%): 54.8%
viable pyramidal cell counts per unit area, CA3 field, decrease (rate) ([2]; 1 hr post-impact, non-treated 45.9%): 63.0%
viable pyramidal cell counts per unit area, CA3 field, decrease (rate) ([2]; 48 hr post-impact, non-treated 37.6%): 61.2%
CBF after the high values registered immediately after impact ([3]; dogs subjected to DCN, drug-treated group (same as non-treated)): no subsequent changes thereafter
damage field with time (MRI) ([3]; dogs, DCN group with drug pretreatment): damage area had expanded
T2-weighted high-signal and T1-weighted low-signal areas (MRI) [4]: expanded
time-related expansion of damage after impact (MRI) ([5]; drop weight group with drug pretreatment, 240 cm·g): not established
SBD development (CBF peak at 3 hr after impact) ([5]; drop-weight-inflicted, drug-pretreated group): effectively suppressed SBD development
